# Results: PMC5108032, “Discovery of a Quinoline-4-carboxamide Derivative with a Novel Mechanism of Action, Multistage Antimalarial Activity, and Potent in Vivo Efficacy” (Journal of Medicinal Chemistry, 2016)
# Legend:
# [1] = Oral maximum tolerated dose; conditions: in vivo, 300 mg/kg
# [2] = Kinetic aqueous solubility (laser nephelometry); format: physicochemical; conditions: MilliQ water with 1.0% DMSO, aqueous with cosolvent or surfactant or cyclodextrin, kinetic from dmso stock
# Source text: inhibition at top, C= EC50, D= slope, x= inhibitor concentration and y= % inhibition. […]
# reach 100% of inhibition, B was fixed to 100 only when at least 50% of inhibition was reached.
# Plasmodium falciparum late stage (IV-V) gametocyte high content imaging assay Plasmodium falciparum NF54-pfs16-LUC-GFP stage IV-V Gametocytes were produced as described previously.5 Compounds were solubilized in DMSO and serially diluted in three concentrations per log standard curves in DM SO. One µl of compound was subsequently diluted in 25µl of water (4% DMSO) and 5µl transferred into the base of 384 well PerkinElmer CellCarrier plates. […]
# Post incubation, 5µl of MitoTracker® Red CM -H2Xros (MTR) solution (0.66ug/ml) was added to all wells and the plates incubated for a further 16hours. The assay plates were then imaged and the number of viable gametocytes determined for test compounds plus 0.4%DMSO and 5µM Puromycin. […]
# Assay was performed as previously reported.6 Briefly blood containing P. berghei CTRPp-GFP gametocytes was rapidly harvested from infected mice and introduced to test compounds pre-diluted in ookinete medium (to induce gamete formation and support ookinete development) in 96-well plates. […] All assays were performed in triplicate independent experiments and EC50 values calculated in Graphpad Prism. […]
# [3] = Intrinsic clearance in rat hepatocytes; format: in vitro ADME
smiles,measurement,setting,value
"O=C(NCCN1CCCC1)c1cc(NCCCN2CCOCC2)nc2ccc(F)cc12 [Compound 25, 6-Fluoro-2-((3-morpholinopropyl)amino)-N-(2-(pyrrolidin-1-yl)ethyl)quinoline-4-carboxamide]",MTD at 4 days,[1],> 300 mg/kg
"O=C(NCCN1CCCC1)c1cc(NCCCCN2CCOCC2)nc2ccc(Cl)cc12 [Compound 27, 6-Chloro-2-((4-morpholinobutyl)amino)-N-(2-(pyrrolidin-1-yl)ethyl)quinoline-4-carboxamide]",solubility kinetic,[2],220 µM
"O=C(NCCN1CCCC1)c1cc(NCCC2CCOCC2)nc2ccc(Cl)cc12 [Compound 30, 6-Chloro-N-(2-(pyrrolidin-1-yl)ethyl)-2-((2-(tetrahydro-2H-pyran-4-yl)ethyl)amino)quinoline-4-carboxamide]",intrinsic clearance in rat hepatocytes (Cli),[3],3 mL min^–1 g^–1
